Laboratory results from ChEMBL document CHEMBL1146756, “Studies on aromatic compounds: inhibition of calpain I by biphenyl derivatives and peptide-biphenyl hybrids” (Bioorg Med Chem Lett, 2004).

Experiments:
Calpain small subunit 1 [1] = target: T1, Calpain small subunit 1 (Sus scrofa, UniProt P04574); test: Ability to displace labelledcasein from calpain I in porcine erythrocytes; Noninhibitor; assay type: cell-based
T1 sequence (P04574 whole entry): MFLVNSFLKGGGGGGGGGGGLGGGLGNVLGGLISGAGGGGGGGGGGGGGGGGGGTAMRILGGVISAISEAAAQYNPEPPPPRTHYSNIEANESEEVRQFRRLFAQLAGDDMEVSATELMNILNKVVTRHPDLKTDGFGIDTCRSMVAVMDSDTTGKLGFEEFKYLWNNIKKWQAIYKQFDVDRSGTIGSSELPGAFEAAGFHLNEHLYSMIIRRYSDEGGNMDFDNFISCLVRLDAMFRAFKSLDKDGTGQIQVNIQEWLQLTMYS

[2] = Displacement of casein from calpain 1 in porcine erythrocytes; assay type: cell-based, Sus scrofa
Calpain small subunit 1 [3] = target: T1, Calpain small subunit 1; test: Ability to displace labelledcasein from calpain I in porcine erythrocytes; Weak inhibitor; assay type: cell-based

Row | IC50 [2] [µM] | Structure (SMILES) | further results
1 |  | COC(=O)[C@H](Cc1c[nH]cn1)NC(=O)c1ccccc1-c1ccccc1C(=O)N[C@@H](Cc1c[nH]cn1)C(=O)OC | IC50 (Calpain small subunit 1 [1]): No inhibition
2 | 7 | COC(=O)[C@@H](NC(=O)c1ccccc1-c1ccccc1C(=O)N[C@H](C(=O)OC)C(C)C)C(C)C | 
3 | 0.064 | COC(=O)[C@H](Cc1ccccc1)NC(=O)c1ccccc1-c1ccccc1C(=O)N[C@@H](Cc1ccccc1)C(=O)OC | 
4 | 41 | COC(=O)[C@@H](NC(=O)[C@H](Cc1ccccc1)NC(=O)c1ccccc1-c1ccccc1C(=O)N[C@@H](Cc1ccccc1)C(=O)Nc1ccccc1-c1ccccc1NC(=O)[C@H](C)NC(=O)OCC1c2ccccc2-c2ccccc21)C(C)C | 
5 | 0.037 | COC(=O)[C@H](Cc1c[nH]c2ccccc12)NC(=O)c1ccccc1-c1ccccc1C(=O)N[C@@H](Cc1c[nH]c2ccccc12)C(=O)OC | 
6 | 0.024 | COC(=O)[C@H](Cc1ccccc1)NC(=O)[C@@H](NC(=O)c1ccccc1-c1ccccc1C(=O)N[C@H](C(=O)N[C@@H](Cc1ccccc1)C(=O)OC)C(C)C)C(C)C | 
7 |  | COC(=O)[C@H](Cc1ccccc1)NC(=O)c1ccccc1-c1ccccc1C(=O)O | IC50 (Calpain small subunit 1 [1]): No inhibition
8 | 116 | C=CCO[C@H]1O[C@H](CNC(=O)c2ccccc2-c2ccccc2C(=O)N[C@@H](Cc2ccc(O)cc2)C(=O)OC)C=C[C@@H]1CC(=O)N[C@@H](Cc1ccccc1)C(=O)N[C@@H](CC(C)C)C(=O)NC | 
9 | 77 | COC(=O)[C@H](Cc1ccccc1)NC(=O)[C@H](CCSC)NC(=O)c1ccccc1-c1ccccc1C(=O)N[C@@H](CCSC)C(=O)N[C@@H](Cc1c[nH]c2ccccc12)C(=O)OC | 
10 |  | COC(=O)[C@H](Cc1ccc(O)cc1)NC(=O)c1ccccc1-c1ccccc1C(=O)N[C@@H](Cc1ccc(O)cc1)C(=O)OC | IC50 (Calpain small subunit 1 [1]): No inhibition
11 | 0.098 | COC(=O)[C@H](Cc1ccccc1)NC(=O)[C@H](Cc1ccccc1)NC(=O)c1ccccc1-c1ccccc1C(=O)N[C@@H](Cc1ccccc1)C(=O)N[C@@H](Cc1ccccc1)C(=O)OC | 
12 | 0.07 | O=C(N[C@@H](Cc1ccccc1)C(=O)O)c1ccccc1-c1ccccc1C(=O)N[C@@H](Cc1ccccc1)C(=O)O | 
13 |  | COC(=O)[C@H](Cc1ccc(O)cc1)NC(=O)c1ccccc1-c1ccccc1C(=O)N[C@@H](Cc1ccccc1)C(=O)N[C@@H](CCSC)C(=O)OC | IC50 (Calpain small subunit 1 [3]): Weak inhibitor
14 | 200 | O=C(N[C@@H](Cc1ccc(O)cc1)C(=O)O)c1ccccc1-c1ccccc1C(=O)N[C@@H](Cc1ccc(O)cc1)C(=O)O | 
15 |  | CCC(C)[C@H](NC(=O)c1ccccc1-c1ccccc1C(=O)N[C@H](C(=O)OC)C(C)CC)C(=O)OC (some centres not stated) | IC50 (Calpain small subunit 1 [1]): No inhibition
16 |  | CNC(=O)[C@@H](Cc1ccccc1)NC(=O)[C@H](Cc1ccccc1)NC(=O)c1ccccc1-c1ccccc1C(=O)N[C@@H](CC(C)C)C(=O)N[C@@H](CCSC)C(=O)OC | IC50 (Calpain small subunit 1 [3]): Weak inhibitor
17 |  | COC(=O)[C@H](C)NC(=O)c1ccccc1-c1ccccc1C(=O)N[C@@H](C)C(=O)OC | IC50 (Calpain small subunit 1 [1]): No inhibition
